# Measured values from article PMC10635799, “Analogs of FTY720 inhibit TRPM7 but not S1PRs and exert multimodal anti-inflammatory effects” (The Journal of General Physiology, 2023).
# Key:
# alveolar macrophages = experiment: LPS-induced cytokine expression in primary alveolar macrophages (qRT-PCR); assay type: cell-based, mouse; details: 10 µM pretreatment, LPS 1 µg/ml for 3 h
# Experimental: Alveolar macrophages were isolated and cultured from wildtype (WT) C57BL/6 mice (Strain #000664; Jackson Laboratory) using an established protocol ([Nayak et al., 2018]). […] Using a 5-ml syringe filled with 3 ml of bronchoalveolar lavage buffer (“BAL buffer”: Ca^2+- and Mg^2+-free PBS + 1 mM EDTA), the lungs were first filled with ∼2 ml of BAL buffer, then flushed five times in a cycle involving the installation and removal of 1 ml of buffer. The collected BAL fluid was pooled and the cyclical perfusion step was repeated with fresh buffer until a total of ∼10 ml of BAL fluid was collected. BAL fluid with gross evidence of blood contamination was discarded. A pellet was obtained through centrifugation at 500 × g for 5 min, and contaminating red blood cells were lysed by resuspending cells for 5 min in 5 ml of ice-cold ACK Lysis buffer (A1049201; Gibco). The cells were then pelleted at 500 × g for 5 min, resuspended in alveolar macrophage culture media (DMEM supplemented with 10% FBS, 20% L-929 culture supernatant, 1 mM sodium pyruvate, 10 mM HEPES, and 1× penicillin/streptomycin), and plated onto untreated tissue culture dishes for 24 h. The media was exchanged prior to use to remove unattached cells.
# RAW 264.7 macrophages or BMDMs were seeded at a density of 250,000 cells per well into a 12-well tissue culture plate in 1 ml of media and left to incubate overnight. The indicated drug or vehicle control was added to each well, and the plate was agitated and left to incubate for 10 min. […] Cells were washed with PBS and then RNA isolation was performed using RNeasy Plus Micro Kit (74134; Qiagen). cDNA was produced using GoScript Reverse Transcriptase (A5004; Promega) and a quantitative PCR was performed using SensiFast SYBR (98020; Bioline) and Bio-Rad CFX Connect thermocycler. […] Fold-changes are all reported relative to untreated controls for each experiment and were calculated using the ∆∆Ct method, with β2-microglobulin used as the housekeeping gene for each sample. […]
# BV-2 microglia = experiment: LPS-induced cytokine expression in BV-2 microglia (qRT-PCR); assay type: cell-based, mouse; details: 10 µM pretreatment, LPS 1 µg/ml for 3 h
# Experimental: RAW 264.7 macrophages or BMDMs were seeded at a density of 250,000 cells per well into a 12-well tissue culture plate in 1 ml of media and left to incubate overnight. The indicated drug or vehicle control was added to each well, and the plate was agitated and left to incubate for 10 min. The cells were then treated with LPS (1 μg/ml) or an equivalent volume of PBS, agitated, and left to incubate for 3 h. Cells were washed with PBS and then RNA isolation was performed using RNeasy Plus Micro Kit (74134; Qiagen). cDNA was produced using GoScript Reverse Transcriptase ([…]; Promega) and a quantitative PCR was performed using SensiFast SYBR (98020; Bioline) and Bio-Rad CFX Connect thermocycler. Each datum represents an individual, biological replicate that is the mean of duplicate technical replicates. Fold-changes are all reported relative to untreated controls for each experiment and were calculated using the ΔΔCt method, with β2-microglobulin used as the housekeeping gene for each sample. The experiment was performed similarly with BV-2 microglia and alveolar macrophages, except that cells were plated at a density of 100,000 cells per well into a 24-well tissue culture plate with 1 ml of media per well.
# lymphocytes = tested on: lymphocytes; design: method as in Brinkmann et al., 2002; Zhu et al., 2007; details: ref Brinkmann et al., 2002; Zhu et al., 2007; cited from earlier work
smiles,measurement,setting,value
"CCCCCCCCc1ccc([C@@H]2CC[C@@](N)(CO)C2)cc1 [VPC01091.4, ((1S,3R)-1-amino-3-(4-octylphenyl)cyclopentyl)methanol]",LPS-induced CCL4 expression,alveolar macrophages,significantly suppressed
same,LPS-induced IL-1β expression,alveolar macrophages,significantly suppressed
same,LPS-induced TNFα expression,alveolar macrophages,significantly suppressed
same,LPS-induced inflammatory cytokine expression,BV-2 microglia,direct anti-inflammatory effects
same,Lymphopenia when administered to mice,lymphocytes,do not evoke lymphopenia
